This note sets out measurements from ChEMBL document CHEMBL1909046, “DrugMatrix in vitro pharmacology data”.

The target in one test is Estrogen receptor beta (Homo sapiens, UniProt Q92731). Particulars: sf9. Further: in other assays of this panel Not Active means under 50% inhibition at 10 µM.
Test [1] concerns the target Mitogen-activated protein kinase 14 (Homo sapiens, UniProt Q16539). Also noted: species or system Escherichia coli.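 Further: inhibition of p38alpha enzyme activity in a biochemical kinase assay, with myelin basic protein serving as substrate; in other assays of this panel Not Active means under 50% inhibition at 10 µM.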
A short description of test [2]: DRUGMATRIX: GABAA, Flunitrazepam, Central radioligand binding (ligand: [3H] Flunitrazepam). The test is classed as cell membranes, Rattus norvegicus, Wistar, Brain, Membrane. Particulars: Not Active = under 50% inhibition at 10 µM.
Test [3] can be described thus: DRUGMATRIX: Calcium Channel Type L, Phenylalkylamine radioligand binding (ligand: [3H] (-)-Desmethoxyverapamil (D-888)). The test is classed as cell membranes, Rattus norvegicus, Wistar, Brain, Membrane. Particulars: Not Active = under 50% inhibition at 10 µM.
The target in test [4] is Aldo-keto reductase family 1 member B1 (Rattus norvegicus, UniProt P07943). Nature of the test: biochemical. The class given is tissue-based, Lens of camera-type eye.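 Further: inhibition of aldose reductase enzyme activity, measured with DL-glyceraldehyde as the substrate; in other assays of this panel Not Active means under 50% inhibition at 10 µM.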
Test [5] is described as follows: DRUGMATRIX: Purinergic P2X radioligand binding (ligand: [3H] alpha, beta-Methylene-ATP). The test is classed as cell membranes, Oryctolagus cuniculus, New Zealand albino, Urinary bladder, Membrane. The conditions noted are these: Not Active = under 50% inhibition at 10 µM.
Test [6] concerns the target T1, 3-hydroxy-3-methylglutaryl-coenzyme A reductase (Homo sapiens, UniProt P04035).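 Further: enzyme inhibition assay of HMG-CoA reductase using radiolabeled [14C]HMG-CoA as substrate; in other assays of this panel Not Active means under 50% inhibition at 10 µM.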
T1 sequence (P04035 whole entry): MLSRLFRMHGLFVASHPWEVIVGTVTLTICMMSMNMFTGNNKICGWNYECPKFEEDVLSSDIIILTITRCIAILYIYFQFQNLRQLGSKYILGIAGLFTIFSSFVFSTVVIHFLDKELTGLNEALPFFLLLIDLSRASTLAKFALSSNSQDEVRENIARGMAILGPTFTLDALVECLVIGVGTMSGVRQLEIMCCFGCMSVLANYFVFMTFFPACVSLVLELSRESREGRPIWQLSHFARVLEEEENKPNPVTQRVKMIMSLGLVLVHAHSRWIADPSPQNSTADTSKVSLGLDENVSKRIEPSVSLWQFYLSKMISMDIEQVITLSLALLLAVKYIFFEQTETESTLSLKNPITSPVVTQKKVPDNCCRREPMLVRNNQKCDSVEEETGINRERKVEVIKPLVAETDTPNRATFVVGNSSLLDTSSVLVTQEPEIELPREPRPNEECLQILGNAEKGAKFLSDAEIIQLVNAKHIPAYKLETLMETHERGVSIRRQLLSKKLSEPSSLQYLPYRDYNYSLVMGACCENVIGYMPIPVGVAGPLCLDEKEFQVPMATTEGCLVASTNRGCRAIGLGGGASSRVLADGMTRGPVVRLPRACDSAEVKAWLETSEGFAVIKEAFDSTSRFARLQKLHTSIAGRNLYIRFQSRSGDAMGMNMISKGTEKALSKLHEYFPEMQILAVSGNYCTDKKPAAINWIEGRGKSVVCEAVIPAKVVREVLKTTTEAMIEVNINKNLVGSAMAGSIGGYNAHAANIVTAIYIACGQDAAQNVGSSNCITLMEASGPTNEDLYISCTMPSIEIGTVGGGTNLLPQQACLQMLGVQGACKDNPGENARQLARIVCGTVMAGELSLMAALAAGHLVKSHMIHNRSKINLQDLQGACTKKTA
Details: species or system Escherichia coli.

Chain of Mitogen-activated protein kinase 14 (Q16539 whole entry): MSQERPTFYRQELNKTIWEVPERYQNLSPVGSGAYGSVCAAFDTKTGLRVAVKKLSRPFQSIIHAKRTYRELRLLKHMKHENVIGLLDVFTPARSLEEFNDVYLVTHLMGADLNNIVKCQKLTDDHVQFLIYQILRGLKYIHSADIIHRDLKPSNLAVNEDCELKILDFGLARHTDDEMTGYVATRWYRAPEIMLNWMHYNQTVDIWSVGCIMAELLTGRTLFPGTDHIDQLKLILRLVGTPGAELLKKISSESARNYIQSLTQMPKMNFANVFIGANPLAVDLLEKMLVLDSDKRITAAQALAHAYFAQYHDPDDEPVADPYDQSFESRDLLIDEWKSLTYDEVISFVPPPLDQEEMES
Chain of Estrogen receptor beta (Q92731 whole entry): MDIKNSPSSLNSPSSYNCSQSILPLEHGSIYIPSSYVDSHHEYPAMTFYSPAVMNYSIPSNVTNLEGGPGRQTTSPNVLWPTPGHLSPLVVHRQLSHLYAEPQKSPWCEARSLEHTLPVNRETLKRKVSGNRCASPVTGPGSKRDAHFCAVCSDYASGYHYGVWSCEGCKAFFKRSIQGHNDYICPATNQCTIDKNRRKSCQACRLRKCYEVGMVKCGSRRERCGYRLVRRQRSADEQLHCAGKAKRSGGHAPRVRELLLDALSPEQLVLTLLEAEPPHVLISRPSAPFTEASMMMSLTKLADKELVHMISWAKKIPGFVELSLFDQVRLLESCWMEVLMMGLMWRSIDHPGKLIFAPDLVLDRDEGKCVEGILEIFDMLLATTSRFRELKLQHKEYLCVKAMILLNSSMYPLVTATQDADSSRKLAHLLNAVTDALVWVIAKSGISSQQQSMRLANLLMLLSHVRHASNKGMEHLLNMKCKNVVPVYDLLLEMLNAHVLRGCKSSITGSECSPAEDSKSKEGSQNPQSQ

With `CCN(CC)CCCC(C)Nc1c2ccc(Cl)cc2nc2ccc(OC)cc12` (stereo not drawn) [QUINACRINE], the IC50 entry against Estrogen receptor beta is “Not Active”; in test [1], “Not Active”; in test [2], “Not Active”; in test [3] (read-out: IC50), 739 nM; in test [4] it was “Not Active”; in test [5], “Not Active”. For the same compound, the IC50 result in test [6] is “Not Active”. For the same compound, the Ki entry in test [2] is “Not Active”; in test [3] (read-out: Ki), 719 nM; in test [5], “Not Active”.
Take `CC[C@]1(O)C[C@@H]2CN(CCc3c([nH]c4ccccc34)[C@@](C(=O)OC)(c3cc4c(cc3OC)N(C)[C@H]3[C@@](O)(C(N)=O)[C@H](O)[C@]5(CC)C=CCN6CC[C@]43[C@@H]65)C2)C1` [VINDESINE]: the IC50 entry (on Estrogen receptor beta; in test [1]; in test [2]; in test [3]; in test [4]; in test [5]) was “Not Active” each time. The IC50 result in test [6] is “Not Active”. The Ki result in test [2], in test [3] and in test [5] was “Not Active” throughout.
With COBALTOUS CHLORIDE, the IC50 result (on Estrogen receptor beta; in test [1]; in test [2]; in test [3]; in test [4]; in test [5]) was “Not Active” each time. Moreover, the IC50 entry in test [6] is on record as “Not Active”. Also, the Ki entry (at Estrogen receptor beta; in test [1]; in test [2]; in test [3]; in test [4]; in test [5]) was “Not Active” throughout. For the same compound, the Ki entry in test [6] is given as “Not Active”.
As for COLISTIN, the IC50 result (on Estrogen receptor beta; in test [1]; in test [2]; in test [3]; in test [4]; in test [5]) was “Not Active” throughout. In addition, in test [6], the IC50 result was “Not Active”. Further, the Ki entry (at Estrogen receptor beta; in test [1]; in test [2]; in test [3]; in test [4]; in test [5]) was “Not Active” throughout. Moreover, the Ki result in test [6] is listed as “Not Active”.
